Converted amounts (≈) assume the structure as drawn.

In one data set the test system is Aphidius rhopalosiphi. Nature of the data set: LR50; higher = less toxic. The following applies: not reported; mortality.
A further data set concerns Typhlodromus pyri. The data set is described as follows: LR50; higher = less toxic. The following applies: not reported; mortality.
A further data set has as its system Colinus virginianus. The following applies: for NOEC: reproduction developmental.
The test system of the next data set is Anas platyrhynchos. The following applies: oral, mortality.
Another data set has as its system Mus musculus. The following applies: acute; oral; mortality.
The test system of the next data set is Apis mellifera. The following applies: acute; oral; unspecified; mortality.
The subject of the next data set is Pimephales promelas. The following applies: chronic/long-term; duration: 32 days; growth.
A further data set concerns Tagia sp. The following applies: acute; duration: 14 days; mortality.
In another data set the test system is Neomysis kadiakensis. The following applies: chronic/long-term; duration: 28 days; reproduction.
In another data set the test system is Daphnia magna. The following applies: chronic/long-term; duration: 21 days; reproduction.
For another data set, the system named is Cyprinus carpio. The following applies: acute; duration: 96 hours; mortality.
Where [1] appears, read: subchronic, duration: 90 days, oral.

Usually NOAEL stands for the highest tested level that showed no adverse finding. Take `CCCCOC(=O)[C@@H](C)Oc1ccc(Oc2ccc(C(F)(F)F)cn2)cc1` [Fluazifop-P-butyl]: the figures for the LR50 in the data set with Aphidius rhopalosiphi and in the data set with Typhlodromus pyri were 177 g/ha and 5.6 g/ha, respectively. The LC50 in the data set with Colinus virginianus (acute, oral, diet, mortality) was above 1070 mg/kg-day; in the data set on Anas platyrhynchos (short-term, feed) it was above 942 mg/kg-day. Besides, the LD50 in the data set on Colinus virginianus (acute, oral, mortality) was above 2000 mg/kg-day; in the data set on Anas platyrhynchos (acute, unspecified), above 3960 mg/kg-day; with Mus musculus, above 2000 mg/kg-day; with Apis mellifera, above 200 µg/piece. In addition, the NOEC came to 86.8 mg/kg-day in the data set with Colinus virginianus and 0.077 mg/L with Pimephales promelas. Also, the NOAEL with Rattus norvegicus (chronic, mortality) came out at 6.72 mg/kg-day; in the data set with Rattus norvegicus (developmental, development), 2 mg/kg-day; with Rattus norvegicus (setting [1]), 0.9 mg/kg-day.
In the case of `C[C@@H](Oc1ccc(Oc2ccc(C(F)(F)F)cn2)cc1)C(=O)O` [Fluazifop-P], the NOAEL was determined as 2 mg/kg-day with Rattus norvegicus (developmental, development) and 0.9 mg/kg-day with Rattus norvegicus (setting [1]). The same compound registered an NOEC with Pimephales promelas of 1.46 mg/L.
`CCCCOC(=O)C(C)Oc1ccc(Oc2ccc(C(F)(F)F)cn2)cc1` (configuration not stated) [Fluazifop-butyl]: the results for the NOEC with Colinus virginianus, in the data set with Neomysis kadiakensis and in the data set on Daphnia magna were 3.95 mg/kg-day, 0.0477 mg/L and 0.25 mg/L, respectively. The compound also came in with a no-observed-adverse-effect level (NOAEL) with Rattus norvegicus (reproduction developmental, reproduction) of 6.72 mg/kg-day. Also, the results for the LC50 in the data set with Tagia sp. and with Cyprinus carpio were above 1000 mg/kg and 1.31 µg/mL (≈ 3.42 µM), respectively.

These data come from EPA's ToxValDB 9.5 (doi:10.2903/j.efsa.2010.1905).
